Data on one compound can be found in US20240350647A1, “STING SENSITIZING AGENTS” (STipe Therapeutics ApS, priority 2023, published 2024).

Where a SMILES comes first, the peptide text is derived from it. Bridges are numbered along the chain shown (N, C = ends). [ ]: non-standard residue; d: D form. The star is where a group is joined. C16 diacid = O=C(O)CCCCCCCCCCCCCCC(=O)*; AEEA = NCCOCCOCC(=O)O

In one data set the test system is CD4+ T cells. In words: Dendritic Cell-T cell (DC-T) proliferation assay (ProImmune). The settings on record: 22 donors; Percentage Stimulation above Background ≥0.5%, SEM=2; peptides 0.34 μM. The text has this: A panel of peripheral blood mononuclear cell (PBMC) samples from healthy human donors was selected from the ProImmune Ltd (UK) cell bank. Each PBMC sample was HLA (Human Leukocyte Antigen)-typed and stored in liquid nitrogen (vapor-phase) prior to use. The panel was selected so that HLA class II alleles known to be highly expressed in the global population were well represented (data not shown). Donors were predominantly selected by DRB1 allele expression.
A Dendritic Cell-T cell (DC-T) proliferation assay (ProImmune Ltd) was used to identify the presence or potential T cell epitopes within the peptides. Adherent donor PBMCs were cultured with appropriate growth factors to generate monocyte-derived DCs. DCs were then loaded with a control (control 1 and control 2), the peptide (Agent 1, Agent 2, and Agent 3, see FIG. 8A) or left untreated. The peptides were loaded at a final concentration of 0.34 μM.
Mature antigen-loaded DCs were then co-cultured at a fixed ratio with autologous CFSE-labelled T cells in multi-well plates. Each test condition was set up in eight replicate wells and cells were incubated for 7 days. At the end of the incubation period, cell samples were stained with anti-CD4 antibody, then washed and fixed for by flow cytometric analysis. Proliferation was determined by measuring a decrease in CFSE intensity.
Data were compiled to determine antigen-induced proliferation per individual donor, calculated as Percentage Stimulation above Background. The frequency of positive donor cell responses (Percentage Antigenicity) was calculated as the proportion of responding donors out of total donors. Values were then standardized against the strength of response (an average of the Percentage Stimulation value obtained across accepted donors for each protein) to give a response index (RI).
Data obtained by flow cytometric evaluation of cell samples was analyzed using FlowJo Software (Tree Star, Inc.). The number of CFSE-dim (i.e., proliferating) cells was determined for each sample in eight replicate wells. Counts for the CD4^+ CFSE dim population in each sample were expressed as a proportion of the total CD4^+ population. The eight replicate values were then used to calculate Percentage Stimulation above Background (proportion of CD4^+ CFSE dim cells with antigen stimulation minus the proportion of CD4^+ CFSE dim cells without antigen stimulation).
Background threshold values are based on data from unstimulated cells for which a maximum acceptable resting proliferation threshold is established.
In evaluating antigenicity, it is also appropriate to take account of the frequency of donor cell responses across the study cohort. A positive response (Percentage Stimulation above Background ≥0.5%) in 2 or more independent donor samples is considered indicative of a potential T cell epitope.
Depending on the size of the study, (20, 40 or 50 donors), two responding donors sets a threshold of 10%, 5% or 4% respectively. Thus, following calculation of Percentage Stimulation above Background, the frequency of positive donor cell responses (Percentage Antigenicity) is expressed as the proportion of responding donors out of total accepted donors screened.
When calculating the antigenicity of a protein it is important to consider the strength of a response as well as the frequency of that response. This is because some binding responses may be pan-allele, but these responses may not be very strong. The strength of positive donor cell responses was determined by taking an average of the percentage stimulation value obtained across accepted donors for each protein. Determining a Response Index (RI) through the multiplication of strength and frequency values is more representative of the level of antigenicity.

Another data set in a line: FIG. 10B. The settings on record: rat, in vivo, iv, 10 mg/kg. Here is the method:
Table printed on a drawing sheet, FIG. 10B
The patent's description of the figure: FIGS. 10A-10C. Pharmacokinetic profile and parameter for peptides after intravenous administration. FIG. 10A) Mouse PK data (10 mg/kg, bolus IV, n=3 per timepoint). FIG. 10B) Rat PK data (10 mg/kg, bolus IV, n=3 per timepoint). FIG. 10C) Non-human primate (NHP) PK data (4 mg/kg, 30 min IV infusion, n=3). Error bars represent the standard deviation (SD).
First reader's note: Rat PK parameters; the plot legend on the same sheet gives 10 mg/kg (IV) for both agents, and the top-left cell 'PK parameters / rat' spans the first two rows.

For `CC[C@H](C)[C@H](NC(=O)[C@H](CC(N)=O)NC(=O)[C@H](CCCCN)NC(=O)[C@H](C)NC(=O)[C@H](CCCCN)NC(=O)[C@H](CCCCN)NC(=O)COCCOCCNC(=O)COCCOCCNC(=O)CCCCCCCCCCCCCCC(=O)O)C(=O)N[C@H](C(=O)N[C@@H](CC(C)C)C(=O)N[C@@H](CC(C)C)C(=O)N[C@@H](CCCCN)C(=O)NCC(=O)N[C@@H](CC(C)C)C(=O)N[C@@H](CCC(=O)O)C(=O)N[C@H](C(=O)N[C@H](C(=O)N[C@@H](CC(N)=O)C(=O)N[C@@H](CC(=O)O)C(=O)N[C@@H](Cc1c[nH]c2ccccc12)C(=O)N[C@@H](Cc1c[nH]cn1)C(=O)N[C@@H](Cc1ccccc1)C(=O)N[C@H]1CSSC[C@@H](C(N)=O)NC(=O)[C@@H](CCCNC(=N)N)NC(=O)[C@H](CCCNC(=N)N)NC(=O)[C@@H](CCCCN)NC(=O)[C@H](CCCCN)NC(=O)[C@@H](CCCNC(=N)N)NC(=O)CNC(=O)[C@@H](CCCNC(=N)N)NC(=O)[C@H](CCCNC(=N)N)NC(=O)[C@@H](CCCNC(=N)N)NC1=O)[C@@H](C)CC)C(C)C)C(C)C` [Agent 1] ({C16 diacid-AEEA-AEEA}-KKAKNIVLLKGLEVINDWHFC[dR]R[dR]G[dR]K[dK]R[dR]C-NH2; disulfide 21-31), in the data set on CD4+ T cells, the “Response Index (RI)” value was 0.294 and the percentage antigenicity worked out at 22.73%. In addition, the C0 in the data set “FIG. 10B” is 72.7 µg/mL.
